These results are taken from patent US11680043B2 (priority 2021, dated 2023).

SMILES strings stand for the structures. “And” between values parts separate entries of the source, which are not always exact repeats. Identical values can stand only once. Counter-ions that a name gives are not always drawn.

This data set can be described thus: Solubility of psilocin salts in saline. To be noted: for XRPD of Residue: solid residue after 5 hrs in saline (Table 9).
The mark [1] stands for this setting: Saline, updated summary (Table 10).
Where [2] appears, read: pH of saturated solution in saline (Table 9).

Take `CN(C)CCc1c[nH]c2cccc(O)c12.O=S(=O)(O)c1cccc2c(S(=O)(=O)O)cccc12` [Psilocin 1,5-napthalenedisulfonate NAP Pattern 1]: the “XRPD of Residue” value was “NAP Pattern 1”. For the same compound, under setting [1], the “pH at 5 hrs” value is reported as 2.0. For the same compound, the “pH at 5 hrs” value under setting [2] is 2.0.
As for `CN(C)CCc1c[nH]c2cccc(O)c12.O=C(O)c1ccccc1` [Psilocin benzoate BEN Pattern 1, Psilocin benzoate], the “XRPD of Residue” value was “BEN Pattern 1”. The “pH at 5 hrs” value under setting [1] is 6.8 and 6.9. Also, the “Solubility in Saline” value (Table 4 summary) amounted to 5000 µg/mL. Further, the “pH at 5 hrs” value under setting [2] is 6.8 and 6.9.
Consider `CN(C)CCc1c[nH]c2cccc(O)c12` [Psilocin free base, Psilocin, reference compound], for which the “XRPD of Residue” value is “Freeform Pattern 1”. In addition, the “pH at 5 hrs” value under setting [1] is 9.8 and 9.9. Besides, the “pH at 5 hrs” value under setting [2] is 9.8 and 9.9.
Turning to `CN(C)CCc1c[nH]c2cccc(O)c12` [Psilocin hydrochloride HCl Pattern 1, Psilocin hydrochloride], the “pH at 5 hrs” value is 4.0 and 5.4 (Saline, updated summary (Table 10), hydrochloride); 6.0 and 6.1 (pH of saturated solution in saline (Table 9), hydrochloride).
Turning to `CN(C)CCc1c[nH]c2cccc(O)c12.O=C(O)c1ccccc1O` [Psilocin salicylate SAL Pattern 1, Psilocin salicylate], the “XRPD of Residue” value is reported as “SAL Pattern 1”. Besides, under setting [1], the “pH at 5 hrs” value stood at 4.2. For the same compound, the “pH at 5 hrs” value under setting [2] is recorded as 4.2.
